One may read the ED50 as the midpoint of the dose-response relation. A lower ED50 goes with greater potency. Usually LD50 stands for the dose expected to kill half of the subjects tested. A high value points to lower toxicity. Usually IC50 stands for the point on the concentration scale where inhibition reaches its midpoint.

The values below come from patent publication US5256685A, “Mitomycin derivatives” (Kyowa Hakko Kogyo Co., Ltd., priority 1991, dated 1993).

One data set deals with Sarcoma 180 solid tumor. Briefly: Anti-tumor activity to sarcoma 180 solid tumor. Type of data set: in vivo. The following applies: Mus musculus, Sarcoma-180, iv, 168 h; dose showing T/C=0.5 (tumor volume, 7 days after implantation); single i.v. injection 24 hours after s.c. implantation; male ddY mice. How it is done:
Anti-tumor activity to sarcoma 180 solid tumor
5×10^6 Sarcoma 180 cells were abdominally implanted into a ddY mouse and the cells were collected from the ascites of the mouse 7 days after the implantation. The cells were washed once with a sterilized physiological saline solution and then suspended in a sterilized physiological saline solution to prepare a cell suspension of 5×10^7 cells/ml.
0.1 ml of the cell suspension was subcutaneously implanted into the right axillary space of male ddY mice weighing 20±2 g.
A test compound was dissolved in a physiological saline solution or a polyoxyethylene sorbitan monolaurate-containing physiological saline solution, and 0.1 to 0.2 ml of the solution was intravenously injected to 5 mice as one group 24 hours after the implantation of the tumor cells.
The anti-tumor activity of the test compound was determined by measuring the major axis (a) and the minor axis (b) of the tumor 7 days after the implantation of tumor cells, and the value of (a×b^2 /2), which corresponds to the volume of the tumor, was calculated. The intended anti-tumor activity is represented by a ratio of T/C, in which C indicates the tumor volume of mice of the control group to which no test compound was administered and T indicates the tumor volume of mice of the test group to which the test compound was administered. T/C at each dose given was plotted on the vertical axis and a dose is shown by a logarithmic scale on the horizontal axis. The relationship between the dose and T/C was determined to be a straight line by the least squares method. From the regression formula of the straight line thus obtained, the dose showing T/C=0.5 was calculated to give ED50.

The next data set can be described thus: Acute toxicity. The following applies: mouse, in vivo, iv; i.v. once, ddY mice, observed 14 days; Behrens-Kaerber's method. Here is the method:
A test compound was intravenously injected once to five ddY mice as one group. […] LD50 was calculated from the death rate of each group to which the test compound was administered according to the Behrens-Kaerber's method.

The subject of another data set is HeLaS3 cells. Briefly: Growth inhibition test on HeLaS3 cells. Type of data set: cell-based. The following applies: Homo sapiens, HeLa S3, 1 h exposure, then 72 h incubation at 37° C., Neutral Red. How it is done: Growth inhibition test on HeLaS3 cells
HeLaS3 cells were suspended in an MEM medium containing 10% fetal calf serum and 2 mM glutamine at a density of 3×10^4 cells/ml, and 0.1 ml of the cell suspension was put into each well of a 96-well microtiter plate.
After culturing at 37° C. overnight in a carbon dioxide gas incubator, 0.05 ml each of a test compound appropriately diluted with the medium was added to each well. The cells were further cultured for an hour in the carbon dioxide gas incubator, and the culture supernatant was removed. The residue was washed once with a phosphate buffered saline [PBS (-)] and 0.1 ml each of a fresh medium was added to each well. The cells were further incubated at 37° C. for 72 hours in the carbon dioxide gas incubator. After removal of the culture supernatant, 0.1 ml each of the culture medium containing 0.02% Neutral Red was added to each well, and the cells were further incubated at 37° C. for an hour in the carbon dioxide gas incubator to stain the cells.
After removal of the culture supernatant, each well was washed once with a physiological saline, and the dye was extracted with 0.001N HCl/30% ethanol. Absorbance of the extract at 550 nm was measured with a microplate reader. The cell growth inhibition percentage was calculated according to the following equation from the absorbance of the extract of the cells treated with the test compound in various concentrations and that of the untreated cells. [formula]
From the cell growth inhibition percentage thus obtained, the concentration of the test compound which inhibits cell growth by 50%, i.e. IC50 value, was determined.

On to `CO[C@@]12[C@H](COC(N)=O)C3=C(C(=O)C4=C(OC5=C(C4)C(=O)CC(C)C5)C3=O)N1C[C@@H]1N[C@@H]12` (single isomer, unassigned) [Compound 36], for which the ED50 with Sarcoma 180 solid tumor was determined as 1.3 mg/kg. The LD50 at 336 h in the data set “Acute toxicity” was found to be 4.4 mg/kg.

`COc1ccc(C2CC(=O)C3=C(C2)OC2=C(C3)C(=O)C3=C(C2=O)[C@@H](COC(N)=O)[C@@]2(OC)[C@H]4N[C@H]4CN32)cc1` (single isomer, unassigned) [Compound 38] returned an ED50 with Sarcoma 180 solid tumor of 12 mg/kg.

As for `CCC1=C(N)C(=O)C2=C(C1=O)N1C[C@@H]3N[C@@H]3[C@]1(OC)[C@@H]2COC(N)=O` [Compound 1, 6-demethyl-6-ethylmitomycin C], in the data set with HeLaS3 cells, half-maximal inhibition (IC50) required 3000 µM. In addition, the ED50 with Sarcoma 180 solid tumor turned out to be 6.7 mg/kg. Further, in “Acute toxicity”, the LD50 at 336 h turned out to be 38 mg/kg.

As for `CO[C@@]12[C@H](COC(N)=O)C3=C(C(=O)C(Cc4ccccc4)=C(N)C3=O)N1C[C@@H]1N[C@@H]12` [Compound 7, 6-benzyl-6-demethylmitomycin C], the IC50 in the data set with HeLaS3 cells came to 2300 µM. The molecule further came in with an ED50 in the data set with Sarcoma 180 solid tumor of 18 mg/kg. The LD50 at 336 h in “Acute toxicity” was greater than 50 mg/kg.

On to `CO[C@@]12[C@H](COC(N)=O)C3=C(C(=O)C(CC4=C(O)CC(C)(C)CC4=O)=C(N)C3=O)N1C[C@@H]1N[C@@H]12` [Compound 9], for which, in the data set with HeLaS3 cells, the IC50 was found to be 1500 µM. This molecule also displayed a median effective dose (ED50) with Sarcoma 180 solid tumor of 8 mg/kg. The LD50 at 336 h in “Acute toxicity” worked out at 30 mg/kg.

For `CCOC(=O)C(C)(CC1=C(OC)C(=O)C2=C(C1=O)N1C[C@@H]3N[C@@H]3[C@]1(OC)[C@@H]2COC(N)=O)C(C)=O` (stereo partly drawn) [Compound 10], the IC50 in the data set with HeLaS3 cells amounted to 1600 µM.

In the case of `CCOC(=O)C1=C(C)OC2=C(C1)C(=O)C1=C(C2=O)[C@@H](COC(N)=O)[C@@]2(OC)[C@H]3N[C@H]3CN12` [Compound 12], in the data set with Sarcoma 180 solid tumor, the 50% effect level (ED50) was put at a dose of 0.7 mg/kg. Besides, in the data set “Acute toxicity”, the LD50 at 336 h was 5.2 mg/kg.

`CO[C@@]12[C@H](COC(N)=O)C3=C(C(=O)C4=C(OC5=C(C4)C(=O)CC(C)(C)C5)C3=O)N1C[C@@H]1N[C@@H]12` [Compound 13] returned an IC50 in the data set with HeLaS3 cells of 84 µM. Besides, the ED50 in the data set on Sarcoma 180 solid tumor was 1.3 mg/kg. Besides, the 50% lethal dose (LD50) at 336 h in “Acute toxicity” amounted to 2.9 mg/kg.

As to `CO[C@@]12[C@H](COC(N)=O)C3=C(C(=O)C4=C(OC5=C(C4)C(=O)CCC5)C3=O)N1C[C@@H]1N[C@@H]12` [Compound 14], in the data set on HeLaS3 cells, the IC50 was 65 µM. Besides, it took a dose of 0.84 mg/kg to reach the 50% effect level with Sarcoma 180 solid tumor (ED50). The LD50 at 336 h in “Acute toxicity” amounted to 2.2 mg/kg.

`CCC1=C(OC)C(=O)C2=C(C1=O)N1C[C@@H]3N[C@@H]3[C@]1(OC)[C@@H]2COC(N)=O` [Compound 15, 6-demethyl-6-ethylmitomycin A] showed a 50% effective dose (ED50) in the data set with Sarcoma 180 solid tumor of 2.8 mg/kg. Besides, the LD50 at 336 h in the data set “Acute toxicity” was determined as 8.2 mg/kg.

In turn, `CCC1=C(OC)C(=O)C2=C(C1=O)N1C[C@H]3[C@H](N3C)[C@]1(O)[C@H]2COC(N)=O` (stereo partly drawn) [Compound 16, 6-demethyl-6-ethylmitomycin B] came in with an ED50 with Sarcoma 180 solid tumor of 14 mg/kg. This molecule also yielded an LD50 at 336 h in “Acute toxicity” of 25 mg/kg.

`CO[C@@]12[C@H](COC(N)=O)C3=C(C(=O)C4=C(OC(C)=C(C(=O)c5ccccc5)C4)C3=O)N1C[C@@H]1N[C@@H]12` [Compound 30] registered an ED50 in the data set on Sarcoma 180 solid tumor of 5.8 mg/kg.

With `CO[C@@]12[C@H](COC(N)=O)C3=C(C(=O)C4=C(OC5=C(C4)C(=O)CC(C)C5)C3=O)N1C[C@@H]1N[C@@H]12` (stereo partly drawn) [Compound 37], the ED50 in the data set on Sarcoma 180 solid tumor was 0.93 mg/kg.
